The assay has as its target T1, CFTR in primary human bronchial epithelial cells from a ΔF508 homozygous CF donor (CF-HBE cells) (Homo sapiens, UniProt P13569, DEL508-508).
T1 construct: Primary human bronchial epithelial cells from a ΔF508 homozygous CF donor; host or cells: primary human bronchial epithelial cells (CF-HBE), ΔF508 homozygous donor
Briefly: TECC24 recording analysis of CFTR-mediated transepithelial chloride transport (AUC fold over DMSO). The format is cell-based. Conditions: 3 μM test agent, CF-HBE cells cultured 48 hours at 36.5° C.; ratio of test agent AUC of forskolin-stimulated IEQ divided by vehicle (DMSO) AUC. The procedure: Example 31: TECC24 AUC Fold Over DMSO @ 3 μM
The effects of a test agent on CFTR-mediated transepithelial chloride transport was measured using TECC24 recording analysis. Test agents were solubilized in DMSO. Solubilized test agents were mixed with incubation medium containing DMEM/F12, Ultroser G (2%; Crescent Chemical, catalog #67042), Hyclone Fetal Clone II (2%; GE Healthcare, catalog #SH30066.02), bovine brain extract (0.25%; Lonza, catalog #CC-4098), insulin (2.5 μg/mL), IL-13 (10 ng/mL), hydrocortisone (20 nM), transferrin (2.5 μg/mL), triiodothyronine (500 nM), ethanolamine (250 nM), epinephrine (1.5 μM), phosphoethanolamine (250 nM), and retinoic acid (10 nM). Primary human bronchial epithelial cells from a ΔF508 homozygous CF donor (CF-HBE cells; from University of North Carolina Cystic Fibrosis Tissue Procurement Center), grown on Transwell HTS 24-well cell culture inserts (Costar, catalog #3378), were exposed to test agents or controls dissolved in incubation medium. The CF-HBE cells were cultured at 36.5° C. for 48 hours before TECC24 recordings were performed in the presence or absence of test agent, a positive control or vehicle (DMSO).
Following incubation, the transwell cell culture inserts containing the test agent or control-treated CF-HBE cells were loaded onto a TECC24 apparatus (TECC v7 or MTECC v2; EP Design) to record the transepithelial voltage (VT) and resistance (TEER) using 4 AgCl electrodes per well configured in current-clamp mode. The apical and basolateral bath solutions both contained (in mM) 140 NaCl, 5 KCl, 2 CaCl2), 1 MgCl2, 10 Hepes, and 10 glucose (adjusted to pH 7.4 with NaOH). To inhibit basal Na+ absorption, the ENaC inhibitor benzamil (10 μM) was added to the bath. Then, the adenylate cyclase activator, forskolin (10 μM), was added to the bath to activate CFTR. The forskolin-stimulated Cl-transport was halted by addition of bumetanide (20 μM), an inhibitor of the basolateral chloride co-transporter NKCC1, to the bath to confirm that the detected signal was chloride dependent. VT and TEER recordings were digitally acquired at routine intervals using TECC or MTECC software (EP Design). VT and TEER were transformed into equivalent transepithelial Cl-current (IEQ), and the Area Under the Curve (AUC) of the IEQ time course between forskolin and bumetanide addition is generated using Excel (Microsoft). Efficacy is expressed as the ratio of the test agent AUC divided by vehicle AUC. EC50s based on AUC are generated using the non-linear regression log(agonist) vs. response function in Prism software (GraphPad) with Hill Slope fixed=1.
If a test agent increased the AUC of the forskolin-stimulated IEQ relative to vehicle in CF-HBE cells, and this increase was inhibited by bumetanide, then the test agent was considered a CFTR corrector.
T1 sequence (P13569 with tags, fused parts or gaps DEL508-508): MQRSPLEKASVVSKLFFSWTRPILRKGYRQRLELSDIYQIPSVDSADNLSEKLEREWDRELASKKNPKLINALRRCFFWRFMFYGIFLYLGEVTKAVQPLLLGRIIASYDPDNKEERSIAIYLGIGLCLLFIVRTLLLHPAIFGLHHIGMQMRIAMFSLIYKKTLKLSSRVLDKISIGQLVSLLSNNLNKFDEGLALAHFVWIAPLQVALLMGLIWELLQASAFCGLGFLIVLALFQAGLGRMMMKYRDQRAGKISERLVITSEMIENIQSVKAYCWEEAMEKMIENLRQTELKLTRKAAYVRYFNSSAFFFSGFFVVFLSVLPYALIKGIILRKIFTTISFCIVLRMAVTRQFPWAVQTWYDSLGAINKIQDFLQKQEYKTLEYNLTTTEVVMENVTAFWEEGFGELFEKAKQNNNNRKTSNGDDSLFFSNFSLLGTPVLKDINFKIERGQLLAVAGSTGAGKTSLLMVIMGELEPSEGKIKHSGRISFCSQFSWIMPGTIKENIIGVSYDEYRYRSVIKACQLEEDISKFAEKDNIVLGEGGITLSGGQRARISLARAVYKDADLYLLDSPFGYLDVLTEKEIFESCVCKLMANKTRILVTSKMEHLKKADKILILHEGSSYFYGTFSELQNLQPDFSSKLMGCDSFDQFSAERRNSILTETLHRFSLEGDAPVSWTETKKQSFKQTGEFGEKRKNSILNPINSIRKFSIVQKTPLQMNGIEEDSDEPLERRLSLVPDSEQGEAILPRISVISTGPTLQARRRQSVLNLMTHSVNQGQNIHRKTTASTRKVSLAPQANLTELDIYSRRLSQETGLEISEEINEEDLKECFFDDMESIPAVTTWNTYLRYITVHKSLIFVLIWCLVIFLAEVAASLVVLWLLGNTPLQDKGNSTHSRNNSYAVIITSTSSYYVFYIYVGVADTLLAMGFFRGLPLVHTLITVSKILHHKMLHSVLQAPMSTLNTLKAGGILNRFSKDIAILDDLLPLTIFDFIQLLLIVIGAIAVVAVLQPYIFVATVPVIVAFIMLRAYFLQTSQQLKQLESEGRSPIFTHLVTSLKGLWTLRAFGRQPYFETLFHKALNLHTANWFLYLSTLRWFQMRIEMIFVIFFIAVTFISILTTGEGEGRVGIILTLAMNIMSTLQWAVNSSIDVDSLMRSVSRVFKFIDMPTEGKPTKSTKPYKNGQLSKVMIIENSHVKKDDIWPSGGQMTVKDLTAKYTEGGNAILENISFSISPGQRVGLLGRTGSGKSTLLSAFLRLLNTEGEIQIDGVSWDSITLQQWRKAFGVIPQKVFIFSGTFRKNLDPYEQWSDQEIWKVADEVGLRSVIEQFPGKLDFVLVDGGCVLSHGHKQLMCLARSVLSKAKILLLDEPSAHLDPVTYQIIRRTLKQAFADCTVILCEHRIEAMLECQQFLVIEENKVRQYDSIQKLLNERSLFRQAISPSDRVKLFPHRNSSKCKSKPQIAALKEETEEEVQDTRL
`Cc1cccc(C)c1-c1nc(NS(=O)(=O)c2ccccc2)cnc1-c1cccc([C@@H]2CC[C@H](OC(F)(F)F)C2)c1` (single isomer, unassigned) [Example 6a]: the “TECC24 AUC vs. DMSO (@3 μM)” value is on record as “B (“B” refers to AUC between 2-5)”.
In the case of `Cc1cccc(C)c1-c1nc(NS(=O)(=O)c2ccccc2)cnc1-c1cccc([C@@H]2CC[C@@H](OC(F)(F)F)C2)c1` (single isomer, unassigned) [Example 6b], the “TECC24 AUC vs. DMSO (@3 μM)” value is reported as “A (“A “refers to AUC > 5)”.
In the case of `Cc1cccc(C)c1-c1nc(NS(=O)(=O)c2cn(C)nc2C)cnc1-c1cccc([C@@H]2CC[C@H](OC(F)(F)F)C2)c1` (single isomer, unassigned) [Example 7a] it was “C (“C” refers to AUC < 2)”; in that of `Cc1cccc(C)c1-c1nc(NS(=O)(=O)c2cn(C)nc2C)cnc1-c1cccc([C@@H]2CC[C@@H](OC(F)(F)F)C2)c1` (single isomer, unassigned) [Example 7b], “B (“B” refers to AUC between 2-5)”; in that of `Cc1nn(C)cc1S(=O)(=O)Nc1cnc(-c2cccc([C@@H]3CC[C@H](OC(F)(F)F)C3)c2)c(-c2ccccc2C(C)C)n1` (single isomer, unassigned) [Example 8a], “C (“C” refers to AUC < 2)”.
In the case of `Cc1nn(C)cc1S(=O)(=O)Nc1cnc(-c2cccc([C@@H]3CC[C@@H](OC(F)(F)F)C3)c2)c(-c2ccccc2C(C)C)n1` (single isomer, unassigned) [Example 8b] it was “B (“B” refers to AUC between 2-5)”.
In the case of `CC(C)c1ccccc1-c1nc(NS(=O)(=O)c2ccccc2)cnc1-c1cccc([C@@H]2CC[C@H](OC(F)(F)F)C2)c1` (single isomer, unassigned) [Example 9a] it was “C (“C” refers to AUC < 2)”.
On to `CC(C)c1ccccc1-c1nc(NS(=O)(=O)c2ccccc2)cnc1-c1cccc([C@@H]2CC[C@@H](OC(F)(F)F)C2)c1` (single isomer, unassigned) [Example 9b], for which the “TECC24 AUC vs. DMSO (@3 μM)” value is “C (“C” refers to AUC < 2)”.
In the case of `CC(C)n1nccc1-c1nc(NS(=O)(=O)c2ccccc2)cnc1-c1cccc([C@@H]2CCC(OC(F)(F)F)C2)c1` (single isomer, unassigned) [Example 10a] it was “C (“C” refers to AUC < 2)”; in that of `CC(C)n1nccc1-c1nc(NS(=O)(=O)c2ccccc2)cnc1-c1cccc([C@@H]2CC[C@@H](OC(F)(F)F)C2)c1` (single isomer, unassigned) [Example 10b], “C (“C” refers to AUC < 2)”.
In the case of `O=S(=O)(Nc1ncc(-c2cccc([C@H]3CC[C@H](OC(F)(F)F)C3)c2)c(-c2ccccc2C(F)(F)F)n1)c1ccccc1` (single isomer, unassigned) [Example 27a] it was “B (“B” refers to AUC between 2-5)”.
In the case of `O=S(=O)(Nc1ncc(-c2cccc([C@H]3CC[C@@H](OC(F)(F)F)C3)c2)c(-c2ccccc2C(F)(F)F)n1)c1ccccc1` (single isomer, unassigned) [Example 27b] it was “A (“A “refers to AUC > 5)”.
Consider `O=S(=O)(Nc1ncc(-c2cccc([C@@H]3CC[C@H](OC(F)(F)F)C3)c2)c(-c2ccccc2C(F)(F)F)n1)c1ccccc1` (single isomer, unassigned) [Example 28a], for which the “TECC24 AUC vs. DMSO (@3 μM)” value was “A (“A “refers to AUC > 5)”.
In the case of `O=S(=O)(Nc1ncc(-c2cccc([C@@H]3CC[C@@H](OC(F)(F)F)C3)c2)c(-c2ccccc2C(F)(F)F)n1)c1ccccc1` (single isomer, unassigned) [Example 28b] it was “A (“A “refers to AUC > 5)”; in that of `Nc1cccc(S(=O)(=O)Nc2ncc(-c3cccc([C@H]4CC[C@@H](OC(F)(F)F)C4)c3)c(-c3ccccc3C(F)(F)F)n2)c1` (single isomer, unassigned) [Example 29a], “B (“B” refers to AUC between 2-5)”; in that of `Nc1cccc(S(=O)(=O)Nc2ncc(-c3cccc([C@H]4CC[C@H](OC(F)(F)F)C4)c3)c(-c3ccccc3C(F)(F)F)n2)c1` (single isomer, unassigned) [Example 29b], “B (“B” refers to AUC between 2-5)”.
`Nc1cccc(S(=O)(=O)Nc2ncc(-c3cccc([C@@H]4CC[C@H](OC(F)(F)F)C4)c3)c(-c3ccccc3C(F)(F)F)n2)c1` (single isomer, unassigned) [Example 30a]: the “TECC24 AUC vs. DMSO (@3 μM)” value was “B (“B” refers to AUC between 2-5)”.
In the case of `Nc1cccc(S(=O)(=O)Nc2ncc(-c3cccc([C@@H]4CC[C@@H](OC(F)(F)F)C4)c3)c(-c3ccccc3C(F)(F)F)n2)c1` (single isomer, unassigned) [Example 30b] it was “A (“A “refers to AUC > 5)”.
In the case of `CC(C)c1ccccc1-c1nc(NS(=O)(=O)c2ccccc2)cnc1-c1cccc(OCC(F)(F)C(C)(C)C)c1` [Example 1, N-(5-(3-(2,2-difluoro-3,3-dimethylbutoxy)phenyl)-6-(2-isopropylphenyl)pyrazin-2-yl)benzenesulfonamide] it was “A (“A “refers to AUC > 5)”; in that of `Cc1cccc(C)c1-c1nc(NS(=O)(=O)c2ccccc2)cnc1-c1cccc(OCC(F)(F)C(C)(C)C)c1` [Example 2, N-(5-(3-(2,2-difluoro-3,3-dimethylbutoxy)phenyl)-6-(2,6-dimethylphenyl)pyrazin-2-yl)benzenesulfonamide], “A (“A “refers to AUC > 5)”; in that of `Cc1cccc(C)c1-c1nc(NS(=O)(=O)c2ccccc2)cnc1-c1cccc(OCCC(C)(C)C)c1` [Example 3, N-(5-(3-(3,3-dimethylbutoxy)phenyl)-6-(2,6-dimethylphenyl)pyrazin-2-yl)benzenesulfonamide], “A (“A “refers to AUC > 5)”.
Turning to `Cc1cccc(C)c1-c1nc(NS(=O)(=O)c2ccccc2)cnc1-c1ccc(F)c(OCC(C)(C)C(F)(F)F)c1` [Example 4, N-(6-(2,6-dimethylphenyl)-5-(4-fluoro-3-(3,3,3-trifluoro-2,2-dimethylpropoxy)phenyl)pyrazin-2-yl)benzenesulfonamide], the “TECC24 AUC vs. DMSO (@3 μM)” value is “A (“A “refers to AUC > 5)”.
Turning to `CC(C)c1ccccc1-c1nc(NS(=O)(=O)c2ccccc2)cnc1-n1ccc(OCC(F)(F)C(C)(C)C)n1` [Example 5, N-(5-(3-(2,2-difluoro-3,3-dimethylbutoxy)-1H-pyrazol-1-yl)-6-(2-isopropylphenyl)pyrazin-2-yl)benzenesulfonamide], the “TECC24 AUC vs. DMSO (@3 μM)” value is reported as “A (“A “refers to AUC > 5)”.
As for `Cc1nn(C)cc1S(=O)(=O)Nc1cnc(-c2cccc([C@@H]3CC[C@@H](OC(F)(F)F)C3)c2)c(-c2ccnn2C(C)C)n1` [Example 11, N-(6-(1-isopropyl-1H-pyrazol-5-yl)-5-(3-((1R,3R)-3-(trifluoromethoxy)cyclopentyl)phenyl)pyrazin-2-yl)-1,3-dimethyl-1H-pyrazole-4-sulfonamide], the “TECC24 AUC vs. DMSO (@3 μM)” value is given as “C (“C” refers to AUC < 2)”.
In the case of `CC(C)(C)COc1cc(-c2ccc(NS(=O)(=O)c3cccc(Cl)n3)nc2-c2ccc(C(F)(F)F)cc2)ccc1Cl` [Example 12, 6-chloro-N-(5-(4-chloro-3-(neopentyloxy)phenyl)-6-(4-(trifluoromethyl)phenyl)pyridin-2-yl)pyridine-2-sulfonamide] it was “B (“B” refers to AUC between 2-5)”; in that of `CC(C)(C)COc1cc(-c2ccc(NS(=O)(=O)c3cccc(N)n3)nc2-c2ccc(C(F)(F)F)cc2)ccc1Cl` [Example 13, 6-amino-N-(5-(4-chloro-3-(neopentyloxy)phenyl)-6-(4-(trifluoromethyl)phenyl)pyridin-2-yl)pyridine-2-sulfonamide], “C (“C” refers to AUC < 2)”; in that of `CC(C)(C)COc1cc(-c2ccc(NS(=O)(=O)c3ccccc3)nc2-c2ccc(C(F)(F)F)cc2)ccc1Cl` [Example 14, N-(5-(4-chloro-3-(neopentyloxy)phenyl)-6-(4-(trifluoromethyl)phenyl)pyridin-2-yl)benzenesulfonamide], “C (“C” refers to AUC < 2)”.

Source of the values: patent US12583824B2 (Genzyme Corporation, priority 2019, dated 2026).
